Assay results: patent US20250032581A1, “COMPOSITIONS AND ARTICLES COMPRISING AN ADNF POLYPEPTIDE” (RAMOT AT TEL-AVIV UNIVERSITY LTD., priority 2021, published 2025)

System: Tyr mice
Assay: Visual evoked potentials (VEP)
Assay type: in vivo, mouse
Design: key to NAP efficacy: visual evoked potential/axonal transport: corrections by NAP treatment (+)
Protocol: VEP—5.72±0.52-week-old male mice were used for VEP measurements. Animals were treated for 3 days with 0.1 ml S.C saline, recorded, and then followed by 4 daily S.C doses of either 1 μg NAP (in 0.1 ml saline) or 0.1 ml saline followed by another VEP recording.

CC[C@H](C)[C@H](NC(=O)[C@H](CO)NC(=O)[C@@H](NC(=O)[C@@H]1CCCN1C(=O)[C@H](C)NC(=O)[C@@H](N)CC(N)=O)C(C)C)C(=O)N1CCC[C@H]1C(=O)N[C@@H](CCC(N)=O)C(=O)O [NAP, NAPVSIPQ]
VEP P3 AUC (Tyr males): significant NAP effect seen in the 300 and 3000 mcd intensities | NAP efficacy: visual evoked potential/axonal transport (Tyr mouse (first symbol)): +/+
